In general, pIC50 refers to the negative decadic logarithm of the IC50, by convention in mol/L.

pIC50: −log10 of the molar value.

Here are results for 54 compounds from US12152038B2, “Vasopressin receptor antagonists and products and methods related thereto” (Neumora Therapeutics, Inc., priority 2017, dated 2024).

This test concerns the target T1, human Arginine Vasopressin Receptor 1a (AVPR1a) (Homo sapiens, UniProt P37288).
T1 construct: expressed in transfected cells; host or cells: CHO (CHO-AVPR1a, kept under G418 selection)
Description: Vasopressin V1a receptor antagonist assay (FLIPR calcium, CHO-AVPR1a cells). It is filed as cell-based. The method, then: The purpose of this assay was to determine the inhibitory effect of synthesized compounds on the Vasopressin V1a receptor. The assay was performed in Chinese Hamster Ovary (CHO) cells expressing the human Arginine Vasopressin Receptor 1a (AVPR1a). Arginine Vasopressin (AVP) evokes an increase in intracellular calcium in CHO-AVPR1a cells which is measured in a fluorescence assay on the FLIPR^TETRA using calcium sensitive dyes. Test compounds were assessed for their ability to affect the magnitude of the response to AVP, with antagonists showing a concentration-dependent reduction in the AVP-mediated fluorescence. Compounds were tested in duplicate in a 10-point, 1:3 dilution series starting at a nominal concentration of 3 μM in the assay.
CHO-AVPR1a cells were maintained in routine culture in T175 Flasks at 37° C., 5% CO2. The growth medium consists of Ham's F12 media supplemented with 10% v/v fetal bovine serum, 1× non-essential amino acids, and 0.4 mg/ml Geneticin G418.
On day one, cells were harvested from T175 flasks when they are 80-90% confluent by first washing the cell monolayer with PBS and then dissociated using trypsin 0.05%/EDTA (3 mL for a T175 Flask). The flasks were incubated at room temperature until the cells detached. To the cell suspension, 10 ml of growth media was added and the cell density determined using the Vi-Cell automated cell counter. The cells were spun at 1000 rpm for 3 minutes, then the supernatant was carefully removed and discarded. The cell pellet was re-suspended at 6.0e^5 cells/ml in growth media. 25 μL of cells in growth media was dispensed into each well (15,000 cells per well) of a poly-D-lysine coated black, clear bottomed, 384-well plate. The plates were incubated at 37° C., 5% CO2 overnight.
At the start of each assay day, the potency of AVP was assessed and an EC80 concentration determined for subsequent compound profiling. Assays were performed using a two-step addition protocol on the FLIPR^TETRA; first addition of 5 μl of control or test compound at 10× final in assay buffer with 15 min incubation at 37° C., 5% CO2 followed by 10 μl of AVP at 6× final concentration in assay buffer. Changes in fluorescence were monitored for 3 min after both additions on the FLIPR^TETRA using 470-495 nm excitation and 515-575 nm emission wavelengths. The assay buffer consisted of HBSS (+Ca/+Mg) supplemented with 20 mM HEPES, and for the preparation of the AVP agonist only, 0.1% w/v bovine serum albumin. The assay was initiated by the removal of growth media from the cells and replacement with 45 μl of Calcium-6 dye (Molecular Devices) prepared at 1× in assay buffer. Cells were loaded with dye for 60-90 min at 37° C., 5% CO2 before initiation of the FLIPR^TETRA protocol. […] For compound profiling, test compounds were first serially diluted in DMSO (10-point curve, 1:3 dilutions) then diluted 33.3-fold in assay buffer prior to addition to the dye loaded cells on the FLIPR^TETRA. At the end of the incubation period, 10 μl of AVP in assay buffer containing 0.1% BSA was added at the previously determined EC80 concentration.
In-plate controls for the assay included balovaptan and PF-184563 concentration-response curves as reference V1a antagonists, and an AVP concentration-response curve to confirm the reproducibility of the EC80 used for the compound challenge.

T1 sequence (P37288 whole entry): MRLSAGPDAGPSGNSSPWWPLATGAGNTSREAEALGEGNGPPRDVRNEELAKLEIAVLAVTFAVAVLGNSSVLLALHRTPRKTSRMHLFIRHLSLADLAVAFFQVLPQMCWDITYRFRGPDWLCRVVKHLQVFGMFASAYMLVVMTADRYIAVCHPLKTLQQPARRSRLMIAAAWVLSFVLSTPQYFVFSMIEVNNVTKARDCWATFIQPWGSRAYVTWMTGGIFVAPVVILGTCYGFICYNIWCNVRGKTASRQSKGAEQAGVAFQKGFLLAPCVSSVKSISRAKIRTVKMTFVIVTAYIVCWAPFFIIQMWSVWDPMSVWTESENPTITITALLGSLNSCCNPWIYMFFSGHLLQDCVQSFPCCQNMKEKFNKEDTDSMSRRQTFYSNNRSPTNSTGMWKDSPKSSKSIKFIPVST

With `CCc1ccnc(N2CC3(CN(C(=O)N4c5ccc(Cl)cc5OCC4C)C3)C2)n1` (single isomer, unassigned) [18-5-B], the pIC50 is more than 7.00.

Consider `O=C(N1CC2(C1)CN(c1cnc(Br)cn1)C2)N1CCOc2cc(Cl)ccc21` [1-19], for which the pIC50 was more than 7.00.

Regarding `Cc1nccnc1N1CC2(CN(C(=O)N3c4ccc(Cl)cc4OCC3C)C2)C1` (single isomer, unassigned) [20-10-B], the pIC50 was not above 6.00.

`O=C(N1CC2(CN(Cc3cnccn3)C2)C1)N1CCOc2cc(Cl)ccc21` [2-5]: the pIC50 is not above 6.00.

Turning to `CC1COc2cc(F)ccc2N1C(=O)N1CC2(C1)CN(c1ccccn1)C2` (single isomer, unassigned) [1-66-A], the pIC50 was not above 6.00.

As for `O=C(N1CC2(C1)CN(c1ccc(F)cn1)C2)N1CCCc2cc(Cl)ccc21` [9-8], the pIC50 was more than 7.00.

Turning to `CC1COc2cc(F)ccc2N1C(=O)N1CC2(C1)CN(c1cnccn1)C2` (single isomer, unassigned) [1-65-A], the pIC50 was not above 6.00.

For the compound `COc1cnc(N2CC3(CN(C(=O)N4CCOc5cc(Cl)ccc54)C3)C2)nc1` [1-48], the pIC50 is 6.30 to 7.00.

Regarding `O=C(N1CC2(C1)CN(c1ncccc1F)C2)N1CCC(O)c2cc(Cl)ccc21` (stereo not drawn) [13-4], the pIC50 is more than 7.00.

In the case of `O=C(N1CC2(C1)CN(c1n[nH]c3ccccc13)C2)N1CCOc2cc(Cl)ccc21` [1-82], the pIC50 is more than 7.00.

As for `CC1COc2cc(Cl)ccc2N1C(=O)N1CC2(C1)CN(c1ncc(C3CC3)cn1)C2` (stereo not drawn) [21-7], the negative logarithm of the IC50 (pIC50) is 6.30 to 7.00.

Turning to `O=C(N1CC2(C1)CN(c1ccncc1)C2)N1CCOc2cc(Cl)ccc21` [1-34], the pIC50 is not above 6.00.

With `O=C(N1CC2(C1)CN(c1ccc(F)cn1)C2)N1CCOc2ccccc21` [1-63], the pIC50 is 6.30 to 7.00.

In the case of `CC1COc2cc(F)ccc2N1C(=O)N1CC2(C1)CN(c1cnccn1)C2` (stereo not drawn) [1-65], the pIC50 was more than 7.00.

With `CCC1COc2cc(Cl)ccc2N1C(=O)N1CC2(C1)CN(c1ccc(F)cn1)C2` (stereo not drawn) [1-55], the pIC50 was more than 7.00.

For the compound `O=C(N1CC2(CN(Cc3ccccn3)C2)C1)N1CCOc2cc(Cl)ccc21` [2-2], the pIC50 was not above 6.00.

Consider `CC1COc2cc(Cl)ccc2N1C(=O)N1CC2(C1)CN(c1noc3cccnc13)C2` (single isomer, unassigned) [18-3-A], for which the negative logarithm of the IC50 (pIC50) was not above 6.00.

Consider `Cc1cnc(N2CC3(CN(C(=O)N4c5ccc(Cl)cc5OCC4C)C3)C2)cn1` (stereo not drawn) [20-5], for which the pIC50 is more than 7.00.

As to `CC1COc2cc(Cl)ccc2N1C(=O)N1CC2(C1)CN(c1ccccn1)C2` (single isomer, unassigned) [1-60-A], the pIC50 is 6.00 to 6.30.

Take `COc1ccc2c(c1)OCC(C)N2C(=O)N1CC2(C1)CN(c1ccc(F)cn1)C2` (single isomer, unassigned) [1-59-A]: the pIC50 is not above 6.00.

For `O=C(N1CC2(C1)CN(c1cccc(CO)n1)C2)N1CCOc2cc(Cl)ccc21` [1-32], the pIC50 is 6.30 to 7.00.

As to `CC1COc2cc(Cl)c(F)cc2N1C(=O)N1CC2(C1)CN(c1ncccn1)C2` (single isomer, unassigned) [19-2-A], the pIC50 was 6.30 to 7.00.

For the compound `O=C(N1CC2(C1)CN(c1ccc(F)cn1)C2)N1CCOc2ncccc21` [8-5], the pIC50 is not above 6.00.

On to `CC1COc2cc(Cl)ccc2N1C(=O)N1CC2(C1)CN(c1ncc(F)cn1)C2` (stereo not drawn) [18-2], for which the pIC50 was more than 7.00.

With `O=C(N1CC2(C1)CN(c1ccncn1)C2)N1CCOc2cc(Cl)ccc21` [1-74], the pIC50 is 6.30 to 7.00.

`O=C(N1CC2(C1)CN(c1ccc(F)cn1)C2)N1CCCS(=O)(=O)c2cc(Cl)ccc21` [1-75]: the pIC50 was not above 6.00.

For `CC1COc2cc(Cl)ccc2N1C(=O)N1CC2(C1)CN(c1cccnc1)C2` (single isomer, unassigned) [20-1-A], the pIC50 is not above 6.00.

Take `Cc1cc(N2CC3(CN(C(=O)N4CCOc5cc(Cl)ccc54)C3)C2)ccn1` [1-36]: the pIC50 was not above 6.00.

Take `CN1CCN(C(=O)N2CC3(C2)CN(c2ccc(F)cn2)C3)c2ccc(F)cc21` [8-8]: the pIC50 is more than 7.00.

As for `Cc1ccc(N2CC3(CN(C(=O)N4CCOc5cc(Cl)ccc54)C3)C2)nc1` [1-13], the pIC50 was more than 7.00.

Take `O=C(N1CC2(C1)CN(c1ccc(F)cc1)C2)N1CCOc2cc(Cl)ccc21` [1-40]: the pIC50 is 6.30 to 7.00.

On to `CC1CN(C(=O)N2CC3(C2)CN(c2ccc(F)cn2)C3)c2ccc(F)cc2O1` (stereo not drawn) [9-4], for which the pIC50 was more than 7.00.

`Cn1cc(N2CC3(CN(C(=O)N4CCOc5cc(Cl)ccc54)C3)C2)cn1` [1-11]: the pIC50 was not above 6.00.

Consider `CC1COc2cc(F)c(F)cc2N1C(=O)N1CC2(C1)CN(c1ncccn1)C2` (single isomer, unassigned) [19-1-A], for which the pIC50 was not above 6.00.

On to `CC1COc2cc(F)c(F)cc2N1C(=O)N1CC2(C1)CN(c1ccc(F)cn1)C2` (single isomer, unassigned) [19-5-A], for which the pIC50 was 6.30 to 7.00.

As to `O=C(N1CC2(C1)CN(c1ccnnc1)C2)N1CCOc2cc(Cl)ccc21` [1-25], the pIC50 was not above 6.00.

In the case of `CC1COc2cc(Cl)ccc2N1C(=O)N1CC2(C1)CN(c1ccc(F)cn1)C2` (stereo not drawn) [1-73], the pIC50 was more than 7.00.

Take `CC1COc2cc(F)ccc2N1C(=O)N1CC2(C1)CN(c1ncc(F)cn1)C2` (single isomer, unassigned) [18-4-A]: the pIC50 is not above 6.00.

With `Cc1ccnc(N2CC3(CN(C(=O)N4c5ccc(Cl)cc5OCC4C)C3)C2)c1` (single isomer, unassigned) [20-11-A], the pIC50 was 6.00 to 6.30.

Turning to `CC1COc2cc(Cl)ccc2N1C(=O)N1CC2(C1)CN(c1cc(=O)n(C)cn1)C2` (stereo not drawn) [20-14], the pIC50 is 6.30 to 7.00.

Turning to `O=C(N1CC2(C1)CN(c1ccc(F)cn1)C2)N1CCC(O)c2c1ccc(Cl)c2F` (stereo not drawn) [13-5], the pIC50 is more than 7.00.

Regarding `N#Cc1cnc(N2CC3(CN(C(=O)N4CCOc5cc(Cl)ccc54)C3)C2)cn1` [1-24], the pIC50 is 6.00 to 6.30.

Take `Cc1cc(C)nc(N2CC3(CN(C(=O)N4CCOc5cc(Cl)ccc54)C3)C2)n1` [1-38]: the pIC50 was more than 7.00.

For `Cc1nccnc1N1CC2(CN(C(=O)N3CCOc4cc(Cl)ccc43)C2)C1` [1-21], the pIC50 is more than 7.00.

Turning to `O=C(N1CC2(C1)CN(c1cncnc1)C2)N1CCOc2cc(Cl)ccc21` [1-17], the pIC50 was 6.30 to 7.00.

As for `O=C(N1CC2(C1)CN(c1ccccn1)C2)N1CCC(O)c2cc(Cl)ccc21` (stereo not drawn) [13-2], the negative-log IC50 (pIC50) is more than 7.00.

Regarding `O=C(N1CC2(C1)CN(c1ccc(F)cn1)C2)N1CCC(O)c2c1ccc(Cl)c2F` (single isomer, unassigned) [13-5-B], the pIC50 was more than 7.00.

With `Cc1ccc(N2CC3(CN(C(=O)N4CCOc5cc(Cl)ccc54)C3)C2)nc1F` [1-46], the pIC50 was more than 7.00.

Regarding `COc1ccnc(N2CC3(CN(C(=O)N4c5ccc(Cl)cc5OCC4C)C3)C2)c1` (single isomer, unassigned) [20-8-A], the pIC50 was 6.30 to 7.00.

Turning to `O=C(N1CC2(C1)CN(c1ccc(F)cn1)C2)N1CCOc2c1ccc(F)c2F` [9-5], the pIC50 is more than 7.00.

Turning to `CC(C)(C)OC(=O)N1CC2(C1)CN(C(=O)N1CCOc3cc(Cl)ccc31)C2` [1-61], the pIC50 was 6.00 to 6.30.

As for `CC1(C)CCN(C(=O)N2CC3(C2)CN(c2ccc(F)cn2)C3)c2ccc(Cl)cc21` [9-9], the negative-log IC50 (pIC50) is more than 7.00.

`Cc1cc(N2CC3(CN(C(=O)N4CCOc5cc(Cl)ccc54)C3)C2)ncc1C#N` [1-29]: the pIC50 is more than 7.00.

In the case of `CN1CCCN(C(=O)N2CC3(C2)CN(c2ccc(F)cn2)C3)c2ccc(F)cc21` [8-10], the pIC50 was more than 7.00.
